Measured values taken from patent publication US12171743B2, “Forms of aticaprant” (Janssen Pharmaceuticals, Inc., priority 2022, dated 2024).

Tested on: subjects with MDD
Experiment: SHAPS total score (anhedonia), same study
Type: in vivo, human
Details: for SHAPS Total Score Change from Baseline LSMean Difference (SE) Treatment-Placebo: MMRM
Description: To assess a potential effect on anhedonia, an anhedonia scale may be used. For example, the Snaith-Hamilton Pleasure Scale (SHAPS) analysis is a validated scale for the measurement of anhedonia. The SHAPS is a subject completed scale in which subjects score whether or not they experience pleasure in performing a list of activities or experiences. The SHAPS is a self-reported 14-item instrument, developed for the assessment of hedonic capacity. Subjects score whether they experience pleasure in performing a list of activities or experiences. Subjects can rate the answers as 1˜4 where 1 indicates “Definitely agree”, 2 indicates “Agree”, 3 indicates “Disagree” and 4 indicates “Definitely disagree”. The subject's item responses are summed to provide a total score ranging from 14 to 56. A higher total SHAPS score indicates higher levels of current anhedonia. Physician/clinical judgment can be used to assess anhedonia separately or in conjunction with an anhedonia scale.
In some embodiments, the patient has moderate anhedonia. In other embodiments, the patient has severe anhedonia. An assessment of moderate or severe anhedonia is typically determined physician/clinical judgment and/or by one or more tests that provide insight into whether a patient has anhedonia. For example, the severity of the anhedonia may be determined using the SHAPS method. In some embodiments, a patient with moderate or severe anhedonia is considered to have a high level of anhedonia. For example, a patient with a SHAPS score of 38 or greater is considered to have moderate to severe anhedonia that can be considered a high level of anhedonia. In some embodiments, a high level of anhedonia is reflected by a SHAPS score of at least about 40, about 42, about 44, about 46, about 48, about 50, about 52, about 54, about 56, […]. A patient with mild or no anhedonia would be considered to have a low level of anhedonia that is assessed by physician/clinical judgment and/or one or more tests. For example, a patient with a SHAPS score of less than 38 is considered to have low anhedonia. In certain embodiments, a patient with mild anhedonia may have a SHAPS score of 20 to less than 38, for example, a SHAPS score of 20 to about 36, about 22 to about 36, about 24 to about 36, about 26 to about 36, about 26 to about 34, about 26 to about 32, about 26 to about 30, about 26 to about 28, about 28 to about 36, about 28 to about 36, about 30, to about 36, about 32 to about 36, about 34 to about 36, about 20 to about 34, about 22 to about 34, about 24 to about 34, about 26 to about 32, about 26 to about 30, about 26 to about 28, about 28 to about 36, about 28 to about 34, about 28 to about 32, about 28 to about 30, about 30 to about 36, about 30 to about 34, about 30 to about 32, about 32 to about 36, about 32 to about 34, or about 34 to about 36. Typically, a SHAPS score of less than 20 can be considered to correspond to normal hedonic functioning, and for purposes of this disclosure, would fall into the low category of anhedonia, e.g., a SHAPS score of less than 38.
The secondary objectives are: • i. […] To investigate the effect of aticaprant versus placebo on depression related anhedonia as assessed by the SHAPS. • iv.

[1] = fITT Analysis Set, Treatment Week 5
[2] = number of subjects, eITT Analysis Set, Treatment Baseline, N 60
[3] = number of subjects, eITT Analysis Set, Treatment Week 6, N 59
[4] = number of subjects, fITT Analysis Set, Baseline/Day 22 (before treatment), N 83
[5] = number of subjects, fITT Analysis Set, Treatment Baseline, N 83

In the case of `Cc1cc(C)cc(C2CCCN2Cc2ccc(Oc3ccc(C(N)=O)cc3F)cc2)c1` (stereo not drawn) [aticaprant, 3-fluoro-4-4-2-(3,5-dimethylphenyl) pyrrolidin-1-yl-methylphenoxybenzamide], the “SHAPS Total Score Change from Baseline LSMean Difference (SE) Treatment-Placebo” value (eITT Analysis Set, Treatment Week 1) is reported as −0.8, the “SHAPS Total Score Change from Baseline LSMean Difference (SE) Treatment-Placebo” value (eITT Analysis Set, Treatment Week 3) is reported as −1.4 and the “SHAPS Total Score Change from Baseline LSMean Difference (SE) Treatment-Placebo” value (eITT Analysis Set, Treatment Week 4) is reported as −1.4. For the same molecule, the “SHAPS Total Score Change from Baseline LSMean Difference (SE) Treatment-Placebo” value (eITT Analysis Set, Treatment Week 5) was −0.5, the “SHAPS Total Score Change from Baseline LSMean Difference (SE) Treatment-Placebo” value (eITT Analysis Set, Treatment Week 6) was −0.7 and the “SHAPS Total Score Effect Size” value (eITT Analysis Set, Treatment Week 6, negative favors aticaprant) was −0.07. For the same molecule, the “SHAPS total score: mean change from treatment baseline (SD)” value (eITT, Treatment Week 6) was −4.6 (6.23), the “SHAPS total score: observed effect size” value (eITT, Treatment Week 6) was 0.07 and the “Frequency of Subjects: No Anhedonia (SHAPS Total Score < 20)” value (fITT Analysis Set, Baseline/Day 22 (before treatment), N 83) was 1.2%. The “Frequency of Subjects: No Anhedonia (SHAPS Total Score < 20)” value (fITT Analysis Set, Treatment Baseline, N 83 (Table 64)) was 1.2%, the “SHAPS Total Score Change from Baseline LSMean Difference (SE) Treatment-Placebo” value (fITT Analysis Set, Treatment Week 1) was −1.0 (0.72) and the “SHAPS Total Score Change from Baseline LSMean Difference (SE) Treatment-Placebo” value (fITT Analysis Set, Treatment Week 3) was −1.4 (0.73). The “SHAPS Total Score Change from Baseline LSMean Difference (SE) Treatment-Placebo” value (fITT Analysis Set, Treatment Week 4) was −1.6 (0.73), the “SHAPS Total Score Mean Change from Baseline (SD)” value [1] was −4.3 (5.70) and the “SHAPS Total Score Change from Baseline LSMean Difference (SE) Treatment-Placebo” value [1] was −0.8 (0.73). The “SHAPS Total Score Change from Baseline LSMean Difference (SE) Treatment-Placebo” value (fITT Analysis Set, Treatment Week 6) was −0.8 (0.73), the “Frequency of Subjects: High Level of Anhedonia (SHAPS Total Score >= 38)” value (shortened to “Frequency … (SHAPS Total Score >= 38)”) [2] was 26 and the “Frequency of Subjects: Low Level of Anhedonia Score < 20) Total Score < 38)” value [2] was 34. The “Frequency of Subjects: No Anhedonia (SHAPS Total)” value [2] was 0, the “Frequency … (SHAPS Total Score >= 38)” value [3] was 8 and the “Frequency of Subjects: Low Level of Anhedonia Score < 20) Total Score < 38)” value [3] was 48. The “Frequency of Subjects: No Anhedonia (SHAPS Total)” value [3] was 3, the “Frequency of Subjects: Anhedonia (SHAPS Total Score >= 20)” value [4] was 82 and the “Frequency of Subjects: No Anhedonia (SHAPS Total Score < 20)” value [4] was 1. The “Frequency … (SHAPS Total Score >= 38)” value [5] was 30, the “Frequency of Subjects: Low Level of Anhedonia (20 >= SHAPS Total Score < 38)” value [5] was 52 and the “Frequency of Subjects: No Anhedonia (SHAPS Total Score < 20)” value (number of subjects, fITT Analysis Set, Treatment Baseline, N 83 (Table 64)) was 1.
